# From patent US20100298141A1, “SUBSTITUTED PYRIDINE N-OXIDE HERBICIDES” (E. I. DU PONT DE NEMOURS AND COMPANY, priority 2007, published 2010)
# Columns and labels:
# green foxtail = experiment: Test F preemergence test; type: in vivo, Setaria viridis; settings: scale 0 to 100
# From the text: (§1) Seeds of plant species selected from bermudagrass (Cynodon dactylon), Surinam grass (Brachiaria decumbens), large crabgrass (Digitaria sanguinalis), green foxtail (Setaria viridis), goosegrass (Eleusine indica), johnsongrass (Sorghum halepense), kochia (Kochia scoparia), pitted morningglory (Ipomoea lacunosa), purple nutsedge (Cyperus rotundus), common ragweed (Ambrosia elation), mustard (Brassica nigra), guineagrass (Panicum maximum), […] (Paspalum dilatatum), barnyardgrass (Echinochloa crus-galli), southern sandbur (Cenchrus echinatus), common sowthistle (Sonchus oleraceous), prickly […] spinosa), Italian ryegrass (Lolium multiflorum), common purslane (Portulaca oleracea), broadleaf signalgrass (Brachiaria platyphylla), common groundsel (Senecio vulgaris), common chickweed (Stellaria media), Virginia dayflower (Commelina virginica), annual bluegrass (Poa annua), naked crabgrass (Digitaria nuda), […] cochinchinensis), quackgrass (Elytrigia repens), Canada horseweed (Conyza canadensis), field bindweed (Convolvulus arvensis), […] (Bidens bipinnata), common mallow (Malva sylvestris), Russian thistle (Salsola kali), and sugarcane (Saccharum officinarum) were planted and treated preemergence with test chemicals formulated in a non-phytotoxic solvent mixture which included a surfactant. At a different time, sugarcane was treated with postemergence applications of some of the test chemicals formulated in the same manner. Plants were approximately 3- to 4-leaf stage for the postemergence treatments. Treated plants and controls were maintained in a greenhouse for 14 to 21 days, after which time all species were compared to controls and visually evaluated. […] A dash (-) response means no test result.
# broadleaf signalgrass = experiment: Test F preemergence test; type: in vivo, Brachiaria platyphylla; settings: scale 0 to 100
# From the text: as §1
# barnyardgrass [1] = experiment: Test F preemergence test; type: in vivo, Echinochloa crus-galli
# From the text: as §1
# velvetleaf = experiment: Test C pre-/postemergence test; type: in vivo, Abutilon theophrasti; settings: for Plant response rating, Velvetleaf: 31 g ai/ha, scale 0 to 100 (0 no effect, 100 complete control)
# Method in brief: (§2)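 Test chemicals were formulated with surfactant in a non-phytotoxic solvent and sprayed both on freshly planted seeds (preemergence) and on 1- to 4-leaf plants of 2–18 cm (postemergence). Flooded-paddy pots received compound directly into 3 cm of standing water, maintained for the test.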
# kochia = experiment: Test C pre-/postemergence test; type: in vivo, Kochia scoparia; settings: for Plant response rating, Kochia: 31 g ai/ha, scale 0 to 100 (0 no effect, 100 complete control)
# Method in brief: as §2
# mustard = experiment: Test F preemergence test; type: in vivo, Brassica nigra; settings: scale 0 to 100
# From the text: as §1
# field bindweed = experiment: Test F preemergence test; type: in vivo, Convolvulus arvensis; settings: scale 0 to 100
# From the text: as §1
# common mallow = experiment: Test F preemergence test; type: in vivo, Malva sylvestris; settings: scale 0 to 100
# From the text: as §1
# cocklebur = experiment: Test C pre-/postemergence test; type: in vivo, Xanthium strumarium; settings: for Plant response rating, Cocklebur: 31 g ai/ha, scale 0 to 100 (0 no effect, 100 complete control)
# Method in brief: as §2
# dallisgrass = experiment: Test F preemergence test; type: in vivo, Paspalum dilatatum; settings: scale 0 to 100
# From the text: as §1
# itchgrass = experiment: Test F preemergence test; type: in vivo, Rottboellia cochinchinensis; settings: scale 0 to 100
# From the text: as §1
# barnyardgrass [2] = experiment: Test A pre-/postemergence greenhouse test; type: in vivo, Echinochloa crus-galli; settings: for Plant response rating, Barnyardgrass: 0 to 100 scale where 0 is no effect and 100 is complete control; for Barnyardgrass plant response rating: 0 to 100 scale
# Method in brief: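 Visual injury ratings against untreated controls, taken roughly ten days after treatment in greenhouse. Plants were sprayed postemergence at one- to two-leaf stage (2–10 cm tall); at the same time, seeded loam/sand soil received a directed preemergence spray. Formulation: non-phytotoxic solvent mixture with surfactant.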
# annual bluegrass = experiment: Test F preemergence test; type: in vivo, Poa annua; settings: scale 0 to 100
# From the text: as §1
# [3] = 62 g ai/ha, Preemergence, scale 0 to 100
# [4] = 125 g ai/ha, preemergence, scale 0 to 100
# [5] = Preemergence, 31 g ai/ha, scale 0 to 100
# [6] = 125 g ai/ha, preemergence, scale 0 (no effect) to 100 (complete control)
# [7] = preemergence, 250 g ai/ha, scale 0 (no effect) to 100 (complete control)
# [8] = Postemergence, 500 g ai/ha, 0 is no effect, 100 is complete control
# [9] = Preemergence, 125 g ai/ha, 0 no effect, 100 complete control
structure (smiles),measurement,setting,value
CCc1cc[n+]([O-])c(S(=O)(=O)Cc2c(C(F)(F)F)nn(C)c2OCC(F)(F)F)c1 [Compound 60],"Foxtail, Green plant response rating","green foxtail; 62 g ai/ha, Preemergence",75
same,"Foxtail, Green plant response rating","green foxtail; 125 g ai/ha, preemergence",100
same,"Foxtail, Green plant response rating","green foxtail; 250 g ai/ha, preemergence",100
same,"Plant response rating, Foxtail, Green","green foxtail; Preemergence, 31 g ai/ha",15
same,Signalgrass plant response rating,"broadleaf signalgrass; 125 g ai/ha, preemergence",75
same,Signalgrass plant response rating,"broadleaf signalgrass; 250 g ai/ha, preemergence",100
same,"Plant response rating, Signalgrass","broadleaf signalgrass; Preemergence, 62 g ai/ha",75
same,"Plant response rating, Signalgrass","broadleaf signalgrass; Preemergence, 31 g ai/ha",30
same,Barnyardgrass plant response rating,barnyardgrass [1]; [3],100
same,Barnyardgrass plant response rating,barnyardgrass [1]; [4],100
same,Barnyardgrass plant response rating,"barnyardgrass [1]; 250 g ai/ha, preemergence, scale 0 to 100",100
same,"Plant response rating, Barnyardgrass",barnyardgrass [1]; [5],65
same,Velvetleaf plant response rating,velvetleaf; [3],40
same,Velvetleaf plant response rating,velvetleaf; [6],100
same,"Plant response rating, Velvetleaf",velvetleaf; Preemergence,0
same,Velvetleaf plant response rating,velvetleaf; [7],100
same,Kochia plant response rating,kochia; [3],100
same,Kochia plant response rating,kochia; [6],100
same,"Plant response rating, Kochia",kochia; Preemergence,80
same,Kochia plant response rating,kochia; [7],100
same,Black Mustard plant response rating,"mustard; 62 g ai/ha, Preemergence",60
same,Black Mustard plant response rating,"mustard; 125 g ai/ha, preemergence",100
same,Black Mustard plant response rating,"mustard; 250 g ai/ha, preemergence",100
same,"Plant response rating, Black Mustard","mustard; Preemergence, 31 g ai/ha",0
same,Field Bindweed plant response rating,"field bindweed; 62 g ai/ha, Preemergence",30
same,Field Bindweed plant response rating,"field bindweed; 125 g ai/ha, preemergence",50
same,Field Bindweed plant response rating,"field bindweed; 250 g ai/ha, preemergence",70
same,"Plant response rating, Field Bindweed","field bindweed; Preemergence, 31 g ai/ha",0
same,Mallow plant response rating,"common mallow; 62 g ai/ha, Preemergence",75
same,Mallow plant response rating,"common mallow; 125 g ai/ha, preemergence",100
same,Mallow plant response rating,"common mallow; 250 g ai/ha, preemergence",100
same,"Plant response rating, Mallow","common mallow; Preemergence, 31 g ai/ha",0
same,Cocklebur plant response rating,cocklebur; [3],0
same,Cocklebur plant response rating,cocklebur; [6],0
same,"Plant response rating, Cocklebur",cocklebur; Preemergence,0
same,Cocklebur plant response rating,cocklebur; [7],0
same,Dallisgrass plant response rating,"dallisgrass; 62 g ai/ha, Preemergence",75
same,Dallisgrass plant response rating,"dallisgrass; 125 g ai/ha, preemergence",80
same,Dallisgrass plant response rating,"dallisgrass; 250 g ai/ha, preemergence",100
same,"Plant response rating, Dallisgrass","dallisgrass; Preemergence, 31 g ai/ha",75
same,Itchgrass plant response rating,"itchgrass; 62 g ai/ha, Preemergence",15
same,Itchgrass plant response rating,"itchgrass; 125 g ai/ha, preemergence",25
same,Itchgrass plant response rating,"itchgrass; 250 g ai/ha, preemergence",70
same,"Plant response rating, Itchgrass","itchgrass; Preemergence, 31 g ai/ha",0
same,"Plant response rating, Barnyardgrass","barnyardgrass [2]; Postemergence, 125 g ai/ha",80
same,Barnyardgrass plant response rating,barnyardgrass [2]; [8],90
same,Barnyardgrass plant response rating,barnyardgrass [2]; [9],90
same,"Plant response rating, Barnyardgrass","barnyardgrass [2]; Preemergence, 500 g ai/ha",100
same,Bluegrass plant response rating,"annual bluegrass; 62 g ai/ha, Preemergence",50
same,Bluegrass plant response rating,"annual bluegrass; 125 g ai/ha, preemergence",90
same,Bluegrass plant response rating,"annual bluegrass; 250 g ai/ha, preemergence",100
same,"Plant response rating, Bluegrass","annual bluegrass; Preemergence, 31 g ai/ha",35
Cn1nc(C(F)(F)F)c(C[S+]([O-])c2ccc(Cl)c[n+]2[O-])c1OCC(F)F (centres unmarked) [Compound 85],"Plant response rating, Foxtail, Green","green foxtail; 16 g ai/ha, preemergence",35
same,"Foxtail, Green plant response rating","green foxtail; 125 g ai/ha, preemergence",95
same,"Plant response rating, Foxtail, Green","green foxtail; Preemergence, 62 g ai/ha",90
same,"Plant response rating, Foxtail, Green","green foxtail; Preemergence, 31 g ai/ha",70
same,"Plant response rating, Signalgrass","broadleaf signalgrass; 16 g ai/ha, preemergence",60
same,Signalgrass plant response rating,"broadleaf signalgrass; 125 g ai/ha, preemergence",80
same,"Plant response rating, Signalgrass","broadleaf signalgrass; Preemergence, 62 g ai/ha",70
same,"Plant response rating, Signalgrass","broadleaf signalgrass; Preemergence, 31 g ai/ha",70
same,"Plant response rating, Barnyardgrass","barnyardgrass [1]; 16 g ai/ha, preemergence, scale 0 to 100 (0 no effect, 100 complete control)",50
same,Barnyardgrass plant response rating,barnyardgrass [1]; [4],100
same,"Plant response rating, Barnyardgrass","barnyardgrass [1]; Preemergence, 62 g ai/ha, scale 0 to 100",90
same,"Plant response rating, Barnyardgrass",barnyardgrass [1]; [5],80
same,Velvetleaf plant response rating,velvetleaf; [3],70
same,Velvetleaf plant response rating,velvetleaf; [6],95
same,"Plant response rating, Velvetleaf",velvetleaf; Preemergence,50
same,Velvetleaf plant response rating,velvetleaf; [7],100
same,Kochia plant response rating,kochia; [3],100
same,Kochia plant response rating,kochia; [6],100
same,"Plant response rating, Kochia",kochia; Preemergence,100
same,Kochia plant response rating,kochia; [7],100
same,"Plant response rating, Black Mustard","mustard; 16 g ai/ha, preemergence",40
same,Black Mustard plant response rating,"mustard; 125 g ai/ha, preemergence",60
same,"Plant response rating, Black Mustard","mustard; Preemergence, 62 g ai/ha",40
same,"Plant response rating, Black Mustard","mustard; Preemergence, 31 g ai/ha",40
same,"Plant response rating, Field Bindweed","field bindweed; 16 g ai/ha, preemergence",0
same,Field Bindweed plant response rating,"field bindweed; 125 g ai/ha, preemergence",35
same,"Plant response rating, Field Bindweed","field bindweed; Preemergence, 62 g ai/ha",20
same,"Plant response rating, Field Bindweed","field bindweed; Preemergence, 31 g ai/ha",0
same,"Plant response rating, Mallow","common mallow; 16 g ai/ha, preemergence",0
same,Mallow plant response rating,"common mallow; 125 g ai/ha, preemergence",98
same,"Plant response rating, Mallow","common mallow; Preemergence, 62 g ai/ha",98
same,"Plant response rating, Mallow","common mallow; Preemergence, 31 g ai/ha",50
same,Cocklebur plant response rating,cocklebur; [3],0
same,Cocklebur plant response rating,cocklebur; [6],0
same,"Plant response rating, Cocklebur",cocklebur; Preemergence,0
same,Cocklebur plant response rating,cocklebur; [7],0
same,"Plant response rating, Dallisgrass","dallisgrass; 16 g ai/ha, preemergence",15
same,Dallisgrass plant response rating,"dallisgrass; 125 g ai/ha, preemergence",98
same,"Plant response rating, Dallisgrass","dallisgrass; Preemergence, 62 g ai/ha",85
same,"Plant response rating, Dallisgrass","dallisgrass; Preemergence, 31 g ai/ha",75
same,"Plant response rating, Itchgrass","itchgrass; 16 g ai/ha, preemergence",25
same,Itchgrass plant response rating,"itchgrass; 125 g ai/ha, preemergence",90
same,"Plant response rating, Itchgrass","itchgrass; Preemergence, 62 g ai/ha",70
same,"Plant response rating, Itchgrass","itchgrass; Preemergence, 31 g ai/ha",70
same,"Plant response rating, Barnyardgrass","barnyardgrass [2]; Postemergence, 125 g ai/ha",70
same,Barnyardgrass plant response rating,barnyardgrass [2]; [8],90
same,Barnyardgrass plant response rating,barnyardgrass [2]; [9],70
same,"Plant response rating, Barnyardgrass","barnyardgrass [2]; Preemergence, 500 g ai/ha",100
same,"Plant response rating, Bluegrass","annual bluegrass; 16 g ai/ha, preemergence",75
same,Bluegrass plant response rating,"annual bluegrass; 125 g ai/ha, preemergence",100
same,"Plant response rating, Bluegrass","annual bluegrass; Preemergence, 62 g ai/ha",95
same,"Plant response rating, Bluegrass","annual bluegrass; Preemergence, 31 g ai/ha",95
